The numbers were not newly measured in US9561225B2, “Pharmaceutical formulation containing opioid agonist, opioid antagonist and gelling agent” (Purdue Pharma L.P., priority 2001, dated 2017), which cites them from elsewhere.

For data set [1] the following is noted: after oral administration.
Data set [2] relates to morphine-like opioid agonist / heroin effects.

In the case of `C[C@H]1[C@H]2Cc3ccc(O)cc3[C@]1(C)CCN2CC1CC1` [cyclazocine], in data set [1], the duration of action is around 24 h.
For `C=CCN1CC[C@]23c4c5ccc(O)c4O[C@H]2C(=O)CC[C@@]3(O)[C@H]1C5` [naloxone], the “block of the effect of 25 mg of heroin” value in data set [2] (1 mg intravenously) is reported as “completely block”. For the same compound, in data set [2] (0.4-0.8 mg intramuscularly or intravenously in man), the “effect on morphine-like opioid agonist effects” value is on record as “prevent or promptly reverse the effects of morphine-like opioid agonist”.
Turning to `O=C1CC[C@@]2(O)[C@H]3Cc4ccc(O)c5c4[C@@]2(CCN3CC2CC2)[C@H]1O5` [naltrexone], in data set [1], the duration of action was around 24 h. Also, the time of absorption (following oral administration) was at most 1 h. Moreover, the protein binding result (in vivo) is recorded as “approximately 21%”.
